The experiment deals with T1, human TLR9 (Homo sapiens, UniProt Q9NR96).
T1 sequence (Q9NR96 26-1032): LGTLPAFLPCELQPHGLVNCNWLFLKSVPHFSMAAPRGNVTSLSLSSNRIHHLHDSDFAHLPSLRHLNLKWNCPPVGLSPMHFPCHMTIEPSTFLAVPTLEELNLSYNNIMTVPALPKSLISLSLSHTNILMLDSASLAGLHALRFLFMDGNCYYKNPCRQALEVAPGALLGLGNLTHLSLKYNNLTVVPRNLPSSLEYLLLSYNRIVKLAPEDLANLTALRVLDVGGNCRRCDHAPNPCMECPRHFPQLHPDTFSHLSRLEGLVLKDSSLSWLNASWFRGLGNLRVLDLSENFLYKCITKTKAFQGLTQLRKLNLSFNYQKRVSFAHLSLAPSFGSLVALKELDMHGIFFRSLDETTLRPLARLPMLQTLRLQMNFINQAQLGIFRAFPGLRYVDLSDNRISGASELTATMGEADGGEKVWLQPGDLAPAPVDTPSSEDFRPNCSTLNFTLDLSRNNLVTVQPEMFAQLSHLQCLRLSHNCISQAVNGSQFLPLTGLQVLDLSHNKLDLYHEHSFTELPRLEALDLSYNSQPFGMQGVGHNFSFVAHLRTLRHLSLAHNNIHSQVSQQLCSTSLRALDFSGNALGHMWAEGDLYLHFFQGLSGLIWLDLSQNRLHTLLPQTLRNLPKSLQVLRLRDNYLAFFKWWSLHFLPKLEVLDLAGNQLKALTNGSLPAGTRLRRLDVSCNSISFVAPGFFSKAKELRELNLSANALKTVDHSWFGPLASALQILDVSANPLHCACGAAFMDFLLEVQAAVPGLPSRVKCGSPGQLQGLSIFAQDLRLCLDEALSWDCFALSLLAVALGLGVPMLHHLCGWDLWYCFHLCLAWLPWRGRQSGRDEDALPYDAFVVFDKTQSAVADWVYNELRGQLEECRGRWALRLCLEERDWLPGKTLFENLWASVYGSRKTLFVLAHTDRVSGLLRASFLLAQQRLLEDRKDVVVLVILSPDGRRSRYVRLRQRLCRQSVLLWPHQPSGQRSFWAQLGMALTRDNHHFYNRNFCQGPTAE
Nature of the experiment: HEK293-Blue-hTLR-9 cells assay. Particulars: HEK293-Blue-hTLR9 cells, ODN2006 stimulation, 20 hrs, SEAP reporter; read-out: HEK/hTLR9 IC50. The experiment is classed as cell-based. The source says: HEK293-Blue-hTLR-9 Cells Assay:
A stable HEK293-Blue-hTLR-9 cell line was purchased from InvivoGen (Cat. #: hkb-htlr9, San Diego. California USA). These cells were originally designed for studying the stimulation of human TLR9 by monitoring the activation of NF-κB. A SEAP (secreted embryonic alkaline phosphatase) reporter gene was placed under the control of the IFN-β minimal promoter fused to five NF-κB and AP-1-binding sites. The SEAP was induced by activating NF-κB and AP-1 via stimulating HEK-Blue hTLR9 cells with TLR9 ligands. Therefore the reporter expression was declined by TLR9 antagonist under the stimulation of a ligand, such as ODN2006 (Cat. #: tlrl-2006-1, Invivogen, San Diego, California USA), for incubation of 20 hrs. The cell culture supernatant SEAP reporter activity was determined using QUANTI-Blue™ kit (Cat. #: rep-qb1, Invivogen, San Diego, California, USA) at a wavelength of 640 nm, a detection medium that turns purple or blue in the presence of alkaline phosphatase.
HEK293-Blue-hTLR9 cells were incubated at a density of 250.000-450,000 cells/mL in a volume of 170 μL in a 96-well plate in Dulbecco's Modified Eagle's medium (DMEM) containing 4.5 g/L glucose, 50 U/mL penicillin, […], […], 2 mM L-glutamine, 10% (v/v) heat-inactivated fetal bovine serum with addition of 20 μL test compound 1n a serial dilution in the presence of final DMSO at 1% and 10 μL of 20 uM ODN2006 in above DMEM, perform incubation under 37° C. in a CO2 incubator for 20 hrs. Then 20 μL of the supernatant from each well was incubated with 180 μL Quanti-blue substrate solution at 37° C. for 2 h and the absorbance was read at 620˜655 nm using a spectrophotometer. The signaling pathway that TLR9 activation leads to downstream NF-κB activation has been widely accepted, and therefore similar reporter assay was modified for evaluating TLR9 antagonist.

Results on 20 compounds are retold here after patent US12157746B2, “Tetrahydro-1H-pyrazino[2,1-a]isoindolylquinoline compounds for the treatment of autoimmune disease” (F. HOFFMANN-LA ROCHE AG, priority 2018, dated 2024).

The structures appear in SMILES notation.

On to `C[C@@H]1CN(c2ccc(C#N)c3ncccc23)C[C@@H]2c3ccc(N4CCOC5(CNC5)C4)cc3CN12` [Example 24, 5-[(4R,10bS)-4-methyl-8-(5-oxa-2,8-diazaspiro[3.5]nonan-8-yl)-3,4,6,10b-tetrahydro-1H-pyrazino[2,1-a]isoindol-2-yl]quinoline-8-carbonitrile], for which the IC50 was 90.5 nM.
In the case of `C[C@@H]1CN(c2ccc(C#N)c3ncccc23)C[C@@H]2c3ccc(C4CCNCC4)cc3CN12` [Example 9, 5-[(4R,10bS)-4-methyl-8-(4-piperidyl)-3,4,6,10b-tetrahydro-1H-pyrazino[2,1-a]isoindol-2-yl]quinoline-8-carbonitrile], the IC50 worked out at 130 nM.
To `C[C@@H]1CN(c2ccc(C#N)c3ncsc23)C[C@@H]2c3ccc(N4CCNCC4)cc3CN12` [Example 6, 7-[(4R,10bS)-4-methyl-8-piperazin-1-yl-3,4,6,10b-tetrahydro-1H-pyrazino[2,1-a]isoindol-2-yl]-1,3-benzothiazole-4-carbonitrile] belongs 156 nM; to `C[C@@H]1CN(c2ccc(C#N)c3ncccc23)C[C@@H]2c3ccc(N4CC5(CCN5)C4)cc3CN12` [Example 37, 5-[(4R,10bS)-8-(1,6-diazaspiro[3.3]heptan-6-yl)-4-methyl-3,4,6,10b-tetrahydro-1H-pyrazino[2,1-a]isoindol-2-yl]quinoline-8-carbonitrile], 103 nM; to `C[C@@H]1CN(c2ccc3c(c2)CN2[C@H](C)CN(c4ccc(C#N)n5nccc45)C[C@H]32)CCN1` [Example 97, 4-[(4R,10bS)-4-methyl-8-[(3R)-3-methylpiperazin-1-yl]-3,4,6,10b-tetrahydro-1H-pyrazino[2,1-a]isoindol-2-yl]pyrazolo[1,5-a]pyridine-7-carbonitrile], 161 nM.
On to `C[C@@H]1CN(c2ccc(C#N)c3ncccc23)C[C@@H]2c3ccc(N4CCNC[C@H](O)C4)cc3CN12` [Example 53A, 5-[(4R,10bS)-8-[(6S)-6-hydroxy-1,4-diazepan-1-yl]-4-methyl-3,4,6,10b-tetrahydro-1H-pyrazino[2,1-a]isoindol-2-yl]quinoline-8-carbonitrile], for which the IC50 turned out to be 56 nM.
Regarding `C[C@@H]1CN(c2ccc(C#N)c3ncccc23)C[C@@H]2c3ccc(N4C[C@H](N)[C@@](C)(O)C4)cc3CN12` [Example 45B, 5-[(4R,10bS)-8-[(3S,4S)-4-amino-3-hydroxy-3-methyl-pyrrolidin-1-yl]-4-methyl-3,4,6,10b-tetrahydro-1H-pyrazino[2,1-a]isoindol-2-yl]quinoline-8-carbonitrile], the IC50 stood at 74.1 nM.
To `CO[C@H]1CN(c2ccc3c(c2)CN2[C@H](C)CN(c4ccc(C#N)n5nccc45)C[C@H]32)C[C@@H]1N` [Example 95, 4-[(4R,10bS)-8-[(3S,4S)-3-amino-4-methoxy-pyrrolidin-1-yl]-4-methyl-3,4,6,10b-tetrahydro-1H-pyrazino[2,1-a]isoindol-2-yl]pyrazolo[1,5-a]pyridine-7-carbonitrile] belongs 215 nM.
In the case of `C[C@@H]1CN(c2ccc(C#N)c3ncccc23)C[C@@H]2c3ccc(N4C[C@@H](N)[C@](C)(O)C4)cc3CN12` [Example 45A, 5-[(4R,10bS)-8-[(3R,4R)-4-amino-3-hydroxy-3-methyl-pyrrolidin-1-yl]-4-methyl-3,4,6,10b-tetrahydro-1H-pyrazino[2,1-a]isoindol-2-yl]quinoline-8-carbonitrile], the IC50 is 78.3 nM.
For `C[C@@H]1CN(c2ccc(C#N)c3ncccc23)C[C@@H]2c3ccc(N4CCOC[C@@H](N)C4)cc3CN12` [Example 54B, 5-[(4R,10bS)-8-[(6S)-6-amino-1,4-oxazepan-4-yl]-4-methyl-3,4,6,10b-tetrahydro-1H-pyrazino[2,1-a]isoindol-2-yl]quinoline-8-carbonitrile], the IC50 turned out to be 87.3 nM.
Turning to `C[C@@H]1CN(c2ccc(C#N)c3ncccc23)C[C@@H]2c3ccc(N[C@@H]4CNC[C@H]4F)cc3CN12` [Example 33, 5-[(4R,10bS)-8-[[(3R,4R)-4-fluoropyrrolidin-3-yl]amino]-4-methyl-3,4,6,10b-tetrahydro-1H-pyrazino[2,1-a]isoindol-2-yl]quinoline-8-carbonitrile], the IC50 worked out at 100 nM.
Take `C[C@@H]1CN(c2ccc(C#N)c3ncccc23)C[C@@H]2c3ccc(NC4CNCCOC4)cc3CN12` (stereo partly drawn) [Example 56, 5-[(4R,10bS)-4-methyl-8-(1,4-oxazepan-6-ylamino)-3,4,6,10b-tetrahydro-1H-pyrazino[2,1-a]isoindol-2-yl]quinoline-8-carbonitrile]: the IC50 was found to be 103 nM.
Next, `C[C@@H]1CN(c2ccc(C#N)c3ncccc23)C[C@@H]2c3cccc(N4CCNCC4)c3CN12` [Example 8, 5-[(4R,10bS)-4-methyl-7-piperazin-1-yl-3,4,6,10b-tetrahydro-1H-pyrazino[2,1-a]isoindol-2-yl]quinoline-8-carbonitrile]: 150 nM; `C[C@@H]1CN(c2ccc(C#N)c3ncccc23)C[C@@H]2c3ccc(N4CC[C@@H](N)C4)cc3CN12` [Example 20, 5-[(4R,10bS)-8-[(3R)-3-aminopyrrolidin-1-yl]-4-methyl-3,4,6,10b-tetrahydro-1H-pyrazino[2,1-a]isoindol-2-yl]quinoline-8-carbonitrile]: 86.9 nM; `CN[C@H]1CN(c2ccc3c(c2)CN2[C@H](C)CN(c4ccc(C#N)c5ncccc45)C[C@H]32)C[C@@H]1O` [Example 42, 5-[(4R,10bS)-8-[(3S,4S)-3-hydroxy-4-(methylamino)pyrrolidin-1-yl]-4-methyl-3,4,6,10b-tetrahydro-1H-pyrazino[2,1-a]isoindol-2-yl]quinoline-8-carbonitrile]: 65.4 nM.
Next, `C[C@@H]1CN(c2ccc(C#N)c3ncccc23)C[C@@H]2c3ccc(NC4CNC4)cc3CN12` [Example 28, 5-[(4R,10S)-8-(azetidin-3-ylamino)-4-methyl-3,4,6,10b-tetrahydro-1H-pyrazino[2,1-a]isoindol-2-yl]quinoline-8-carbonitrile]: 83.4 nM; `C[C@@H]1CN(c2ccc(C#N)c3ncccc23)C[C@@H]2c3ccc(N4CC(N)C5(COC5)C4)cc3CN12` (stereo partly drawn) [Example 18, 5-[(4R,10bS)-8-(5-amino-2-oxa-7-azaspiro[3.4]octan-7-yl)-4-methyl-3,4,6,10b-tetrahydro-1H-pyrazino[2,1-a]isoindol-2-yl]quinoline-8-carbonitrile]: 114 nM.
As to `COC12CNCC1CN(c1ccc3c(c1)CN1[C@H](C)CN(c4ccc(C#N)c5ncccc45)C[C@H]31)C2` (stereo partly drawn) [Example 41, 5-[(4R,10bS)-8-(3a-methoxy-1,2,3,4,6,6a-hexahydropyrrolo[3,4-c]pyrrol-5-yl)-4-methyl-3,4,6,10b-tetrahydro-1H-pyrazino[2,1-a]isoindol-2-yl]quinoline-8-carbonitrile], the IC50 is less than 31.8 nM.
Next, `CO[C@H]1CN(c2ccc3c(c2)CN2C3CN(c3ccc(C#N)c4ncccc34)C[C@H]2C)C[C@@H]1N` (single isomer, unassigned) [Example 16A]: 113 nM; `C[C@@H]1CN(c2ccc(C#N)c3ncccc23)C[C@@H]2c3ccc(N4C[C@@H](F)[C@@H](N)C4)cc3CN12` [Example 46, 5-[(4R,10bS)-8-[(3S,4R)-3-amino-4-fluoro-pyrrolidin-1-yl]-4-methyl-3,4,6,10b-tetrahydro-1H-pyrazino[2,1-a]isoindol-2-yl]quinoline-8-carbonitrile]: 144 nM.
